Experiments:
MRSA = format: cell-based, Staphylococcus aureus
Description: To test the effects of peptides, overnight cultures of wild-type MRSA and MRSA^ΔnorA in TSB media were diluted 1:1,000 in TSB with varying concentrations of peptides, in the presence or the absence of norfloxacin (12.5 μg/ml). All the peptide concentrations contained equal amount of the DMSO vehicle. OD600nm was measured as a function of time in a BioScreen C device at 37° C. with shaking between measurements every 15 min. Three independent experiments were acquired; reported errors reflect the standard deviation among the independent experiments.

NorA [1] = biological target: T1, NorA (Staphylococcus aureus, UniProt Q5HHX4); assay: Fluorescence polarization (FP) binding of FITC-NPI-1 to NorA; set-up: species or system S. aureus
T1 construct: made in house; host or cells: C43 (DE3) E. coli
Description: Amphipol-purified NorA underwent an additional round of SEC to remove free amphipol. Fluorescence polarization (FP) experiments were performed on a DTX 880 Multimode Detector (Beckman) at 25° C. with excitation and emission wavelengths set to 485 and 525 nm, respectively. For NorA binding assays, increasing concentrations of NorA were added to wells of 15 nM FITC-NPI-1 in 100 μL solutions of 20 mM Tris pH 7.5, 100 mM NaCl, 10% glycerol, 0.1% pluronic acid, and 1.2% DMSO on black, U-shape 96 well plates (BRANDplates). All samples were incubated for 15 min on a shaking plate. FP values as a function of NorA concentration ([L]) were fit using the following quadratic binding equation in GraphPad Prism to obtain the binding affinity (Kd) for FITC-NPI-1 ([P]T).
Ymax and Yoffset are normalization parameters. The reported Kd value and error for FITC-NPI-1 reflects the average and standard deviation among seven independent experiments, each performed in triplicate.

NorA [2] = biological target: T1, NorA; assay: Competitive MST peptide binding experiment (NPI-1 versus labelled Fab36); set-up: species or system S. aureus; conditions: NorA 6 μM, Fab36 40 nM, NPI-1 1.5 nM to 50 μM
Description: Competitive peptide binding experiments were performed with MST using fluorescently labelled Fab36 as described above. These experiments used fixed concentrations of NorA in PMAL-C8 amphipol at 6 μM and Fab36 at 40 nM, and a variable concentration of NPI-1 from 1.5 nM to 50 μM. Competitive peptide binding experiments were collected with three replicates.

MRSA and MRSA^ΔnorA = assay: Bacteriostatic/bactericidal effect of norfloxacin on MRSA (CFU); format: cell-based, Staphylococcus aureus; conditions: norfloxacin 0, 12.5 or 25 μg/ml; 1, 2, 4 hr
Description: MRSA or MRSA^ΔnorA were cultured overnight in 5 ml TSB and diluted 1:1,000 with TSB the next morning. In a round-bottom 96-well plate, 50 μl of the diluted culture was mixed with 50 μl of TSB supplemented with norfloxacin. The final concentration of MRSA or MRSA^ΔnorA was ˜1×10^6 CFU/ml and norfloxacin was 0, 12.5, or 25 μg/ml. The plate was incubated while shaking at 37° C. At 0 hr and after 1, 2, or 4 hr of incubation, CFUs of MRSA or MRSA^ΔnorA were enumerated by serially diluting in PBS and spot plating on TSA plates.

MRSA^ΔnorA = assay: Norfloxacin MIC assays in MRSA (MIC test strips); format: cell-based, Staphylococcus aureus; conditions: MRSA^ΔnorA expressing wild-type NorA relative to MRSA^ΔnorA alone
Description: Wild-type USA300 strain JE2 (“MRSA”) (Fey et al., “A Genetic Resource for Rapid and Comprehensive Phenotype Screening of Nonessential Staphylococcus aureus Genes,” Mbio 4:e00537-00512 (2013), which is hereby incorporated by reference in its entirety) and isogenic strains, norA::bursa (MRSA^ΔnorA) containing empty vector, or hemin-inducible NorA variants were grown overnight at 37° C. in TSB media supplemented with 10 μg/ml chloramphenicol and 1 μM hemin. The cultures were diluted to approximately 1×10^8 CFU/ml and evenly spread on TSA plates supplemented with 5 μg/ml chloramphenicol and 1 μM hemin. The norfloxacin MIC test strips (Liofilchem) were placed in the center of the plate and the plates were incubated for 24 hr at 37° C. The MIC values were read at the intersection of the inhibition eclipse and the strip. At least two independent MIC experiments were acquired for each sample; reported errors reflect the standard deviation among independent experiments.

NorA [3] = biological target: T1, NorA; assay: FP competition binding experiment with norfloxacin; set-up: species or system S. aureus; conditions: NorA 50 nM, FITC-NPI-1 15 nM, norfloxacin 10 nM and 2 mM
Description: FP competition binding experiments with norfloxacin were performed using FITC-NPI-1 as described above. These experiments used a fixed concentration of NorA in PMAL-C8 amphipol at 50 nM and FITC-NPI-1 at 15 nM with norfloxacin concentrations of 10 nM and 2 mM in 100 μL solutions of 20 mM Tris pH 7.5, 100 mM NaCl, 10% glycerol, 0.1% pluronic acid, and 1.2% DMSO. A control experiment was performed in the same manner but in the absence of NorA. Four independent trials of FP experiments were performed, each in triplicate.

T1 sequence (Q5HHX4 whole entry): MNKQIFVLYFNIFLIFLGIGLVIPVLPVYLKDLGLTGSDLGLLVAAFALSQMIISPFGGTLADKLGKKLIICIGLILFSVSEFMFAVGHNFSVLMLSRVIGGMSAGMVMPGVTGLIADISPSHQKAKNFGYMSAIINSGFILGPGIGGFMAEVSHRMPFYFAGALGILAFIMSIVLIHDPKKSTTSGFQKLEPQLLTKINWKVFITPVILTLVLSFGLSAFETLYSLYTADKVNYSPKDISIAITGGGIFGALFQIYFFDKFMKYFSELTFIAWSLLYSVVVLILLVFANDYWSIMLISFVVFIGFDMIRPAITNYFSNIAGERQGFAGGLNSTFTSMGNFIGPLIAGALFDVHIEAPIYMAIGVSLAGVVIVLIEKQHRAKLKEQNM

Compound	IC50 (MRSA; in the presence of 12.5 μg/ml norfloxacin, 10 hr timepoint, read-out: IC50 growth inhibition of MRSA) [nM]	growth of MRSA in the absence of norfloxacin (MRSA; peptide alone, no norfloxacin)	Kd (NorA [1]) [nM]	greater affinity to NorA (NorA [1]; NPI-1 relative to Fab36) [fold]	displacement of bound Fab36 from NorA (NorA [2])	effect on the growth of MRSA and MRSA^ΔnorA (MRSA and MRSA^ΔnorA)	greater norfloxacin MIC (MRSA^ΔnorA) [fold]	competition with NPI-1 binding to NorA (NorA [3])
H-YYYYAWRVGGYWR-NH2 [NPI-1, NH2-YYYYAWRVGGYWR-CONH2]	720 ± 80	did not inhibit the growth of MRSA	10 ± 5	~14	could displace bound Fab36 from NorA	–	–	–
CCn1cc(C(=O)O)c(=O)c2cc(F)c(N3CCNCC3)cc21 [norfloxacin]	–	–	–	–	–	bacteriostatic effect	20	compete with NPI-1 binding to NorA
